Measurements from the Kinase Knowledgebase extract (Sharma et al. 2016).

Molecular target: MAPK14 (human) (UniProt Q16539)
Assay: Inhibition of MAPK14 Kinase Activity

Chain of MAPK14 (human) (Q16539 whole entry, looked up): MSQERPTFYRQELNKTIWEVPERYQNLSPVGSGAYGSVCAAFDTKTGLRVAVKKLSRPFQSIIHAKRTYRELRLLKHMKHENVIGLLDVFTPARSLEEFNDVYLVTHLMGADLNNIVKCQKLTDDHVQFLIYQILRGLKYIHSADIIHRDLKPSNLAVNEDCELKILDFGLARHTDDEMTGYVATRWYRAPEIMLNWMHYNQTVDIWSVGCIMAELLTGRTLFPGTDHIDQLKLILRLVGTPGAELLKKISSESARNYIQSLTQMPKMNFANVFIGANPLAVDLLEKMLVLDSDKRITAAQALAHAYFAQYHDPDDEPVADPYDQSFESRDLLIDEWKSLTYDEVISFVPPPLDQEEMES

Compound	IC50 [nM]
CC(C)Cn1ncc2cc(C(=O)c3ccc(Cl)cc3Cl)ccc21	< 500
CC(C)Cn1ncc2cc(C(=NOCc3ccccc3)c3ccc(F)cc3F)ccc21	< 500
CN(C)CCNC(=O)c1cc2c(cnn2CC(F)(F)F)cc1Oc1ccc(F)cc1	< 500
Cc1ccccc1Nc1ccc2c(cnn2CC(C)C)c1	< 500
Cc1ccccc1C(=O)c1ccc2c(cnn2CC(C)C)c1	< 500
CS(=O)(=O)n1ncc2cc(C(=NO)c3ccc(F)cc3F)ccc21	< 500
CON=C(c1ccc2c(cnn2CC(F)(F)F)c1)c1ccc(F)cc1F	< 500
CC(C)Cn1ncc2cc(C(O)c3ccc(F)cc3F)ccc21 (stereo not drawn)	< 500
CC(C)Cn1ncc2cc(Nc3ccc(F)cc3F)ccc21	< 500
O=C(c1ccc2c(cnn2CC(F)(F)F)c1)c1ccc(F)cc1F	< 500
C=CCn1ncc2cc(C(=NO)c3ccc(F)cc3F)ccc21	< 500
CC(C)Cn1ncc2cc(C(O)c3ccc(F)cc3Cl)ccc21 (stereo not drawn)	< 500
Cc1ccccc1C(O)c1ccc2c(cnn2CC(C)C)c1 (stereo not drawn)	< 500
CC(C)Cn1ncc2cc(C(=O)c3ccc(F)cc3)ccc21	< 500
CCON=C(c1ccc(F)cc1)c1ccc2c(cnn2CC(C)C)c1	< 500
CC(C)Cn1ncc2cc(C(O)c3ccc(F)cc3)ccc21 (stereo not drawn)	< 500
CC(C)Cn1ncc2cc(Oc3ccc(F)cc3)c(C(=O)NCCN(C)C)cc21	< 500
CCON=C(c1ccc2c(cnn2CC(C)C)c1)c1ccc(F)cc1F	< 500
CC(C)Cn1ncc2cc(C(=O)c3ccc(F)cc3F)ccc21	< 500
C=CCn1ncc2cc(C(=O)c3ccc(F)cc3F)ccc21	< 500
CC(C)Cn1ncc2cc(Nc3ccc(F)cc3)ccc21	< 500
CC(C)Cn1ncc2cc(C(=O)c3ccc(Cl)cc3F)ccc21	< 500

Continued, values first:

IC50 [nM]	Compound
< 500	CC(C)Cn1ncc2cc(C(=NO)c3ccc(F)cc3)ccc21
< 500	CC(C)Cn1ncc2cc(C(O)c3ccc(Cl)cc3F)ccc21 (stereo not drawn)
< 500	CC(C)Cn1ncc2cc(C(=O)c3ccc(F)cc3Cl)ccc21
< 500	COC(=O)C(CCN)NC(=O)c1cc2c(cnn2CC(F)(F)F)cc1Oc1ccc(F)cc1 (stereo not drawn)
< 500	CC(C)Cn1ncc2cc(C(O)c3ccc(Cl)cc3Cl)ccc21 (stereo not drawn)
< 500	CON=C(c1ccc2c(cnn2S(C)(=O)=O)c1)c1ccc(F)cc1F
< 500	COC(=O)C(CCN)NC(=O)c1cc2c(cnn2CC(C)C)cc1Oc1ccc(F)cc1 (stereo not drawn)
< 500	CC(C)Cn1ncc2cc(C(=NO)c3ccc(F)cc3F)ccc21
< 500	CC(C)Cn1ncc2cc(Oc3ccc(F)cc3)c(C(N)=O)cc21
< 500	CON=C(c1ccc(F)cc1)c1ccc2c(cnn2CC(C)C)c1
< 500	ON=C(c1ccc2c(cnn2CC(F)(F)F)c1)c1ccc(F)cc1F
